Laboratory results from US6703413B2 (Rhode Island Hospital, priority 1999, dated 2004).
Where two headings read alike, the source gives them in different places.

Legend:
A-549 lung tumor cells = test: Cell growth inhibition, 3 d exposure, cell counting; format: cell-based; details: Homo sapiens, A549, 72 h
Description: (§1) One ml of this cell suspension was added to each well of a 12 well cell culture plate that contained 3 ml of appropriate media plus serum. […] Control wells received 40 μl of 5% Kollidon 17 PF alone. Seventy-two hours later, all cells were harvested by trypsinization and cell number determined electronically using a Coulter Model Z1 particle counter (Coulter Corp., Miami, Fla.) to assess cell growth inhibition. Each experiment was performed in duplicate and repeated a minimum of three times.
(§2) Cells were seeded at a density of 1-5×10^4 cells in each well of a 6 well tissue culture flask. […] After three days, cells were harvested by trypsinization and cell number determined electronically. Cell growth inhibition was determined by comparison to non-Taurolidine exposed control cultures. The IC50 was calculated as the concentration required to inhibit cell number by 50%.

H-157 lung tumor cells = test: as above; format: cell-based; details: Homo sapiens, NCI-H157, 72 h
Description: as §1, §2

HT-29 colon tumor cells = test: as above; format: cell-based; details: Homo sapiens, 72 h
Description: as §1, §2

MNT-1 melanoma cells = test: as above; format: cell-based; details: Homo sapiens, 72 h
Description: as §1, §2

[1] = system: NIH-3T3 murine fibroblasts; test: as above; format: cell-based
Description: as §1, §2

[2] = system: PA-1 human ovarian tumor cells; test: as above; format: cell-based; details: PA-1 (ovary)
Description: as §1, §2

[3] = system: SKOV-3 human ovarian tumor cells; test: as above; format: cell-based; details: SK-OV-3, 72 h, SKOV-3 (ovary)
Description: as §1, §2

U-251 glioma cells = test: as above; format: cell-based; details: Homo sapiens, 72 h, U-251 (brain)
Description: as §1, §2

[4] = system: DU-145 prostate tumor cells; test: as above; format: cell-based, human
Description: as §1, §2

[5] = system: PA-1 human ovarian tumor cells; test: Phosphotidylserine externalization, Annexin-V FITC binding; format: cell-based; details: PA-1, 24 h exposure
Description: (§3) Three×10^5 cells were seeded in plastic tissue culture flasks. […] Control cultures received an appropriate volume of Kollidine-17P. After an additional 24 h, cells were harvested and phosphotidylserine externalization determined by assessing Annexin-V FITC binding using cytofluorometric techniques. Each bar represents the mean±SE of four determinations. ** p≦0.01, *** p0.001
(§4) Cell membrane phosphotidylserine externalization, as a reflection of the potential induction of apoptosis, was assessed by flow cytometry methods using the ApoAlert® Annexin-V/FITC assay kit. Briefly, 1×10^6 cells were incubated for 24 h in tissue culture medium containing serum. […] Control cultures received 5% Kollidon 17 PF alone. Twenty-four hours later, all cells were harvested by trypsinization. The harvested cells were resuspended in 200 μl of binding buffer and then incubated for 5-15 min in a solution containing 1 μg/ml Annexin-V FITC at room temperature in the dark. The cells were then analyzed to quantitate Annexin-V binding by cytofluorometric techniques that utilized FACScan using the ModFit LT program with statistical analysis as described above.

[6] = system: SKOV-3 human ovarian tumor cells; test: as above; format: cell-based; details: SKOV-3, 24 h exposure
Description: as §3, §4

NIH-3T3 cells [7] = test: as above; format: cell-based, murine; details: NIH-3T3, 24 h exposure, non-significant
Description: as §3, §4

NIH-3T3 cells [8] = test: PARP cleavage, Western-blot; format: cell-based, murine; details: NIH-3T3, 24 h exposure to 50 or 100 μM
Description: Two×10^6 cells were seeded in 150 cm^2 tissue culture flasks. […] After an additional twenty-four hours, cells were harvested, cell number determined, and aliquots derived from equal cell numbers generated from each exposure condition. Total proteins from these whole cell lysates were separated by SDS-PAGE and transferred to nitrocellulose filters. Filters were then immunoblotted to detect intact PARP protein and cleavage fragments by using the clone C-2-10 mouse monoclonal anti-PARP antibody (Zymed Laboratories, San Francisco, Calif.). The resulting protein-antibody complexes were visualized by chemiluminescence techniques.
Western-blot analysis was used to assess of PARP cleavage. Two×10^6 cells were seeded into separate 75 cm^2 tissue culture flasks containing 20 ml of tissue culture media plus serum. […] Twenty-four hours after the addition of Taurolidine, cells were harvested cell number determined, and aliquots containing an equal cell number were generated from each exposure condition. Total proteins from whole cell lysates generated from these aliquots were separated by SDS-PAGE and electrotransferred to nitrocellulose filters. Filters were then processed to detect intact PARP protein and cleavage fragments by using the clone C-2-10 mouse monoclonal anti-PARP antibody (Zymed Laboratories, San Francisco, Calif.). […]

[9] = system: SKOV3 human ovarian tumor cell line; test: Mouse model of recurrent ovarian cancer, intraperitoneal lavage; format: in vivo, Holland Sprague-Dawley mice; details: i.p. lavage from 5 days after 5×10^6 tumor cells, 3 times a day for 4 days, 30 mg/day
Description: Holland Sprague-Dawley mice were injected with 5×10^6 tumor cells (e.g., SKOV3 human ovarian tumor cell line) to mimic a condition of advanced ovarian cancer. […] At least a 75-80% reduction in tumor foci was observed.

[10] = system: activated human T-cell cultures; test: Cytotoxic and apoptotic activity in normal primary cells; format: cell-based
Description: (§5) This observation was confirmed using normal (non-tumor) primary cells derived from animals, which are known to be free of tumors.

[11] = system: normal murine bone marrow cultures; test: as above; format: cell-based
Description: as §5

[12] = system: advanced recurrent glioblastoma multiforma; test: Clinical use in tumor patients; format: in vivo, human
Description: Taurolidine was administered by i.p. lavage immediately following surgery for removal of recurrent ovarian tumors. For patients with glioblastoma, taurolidine was administered systemically.
Four patients, which were diagnosed with advanced recurrent glioblastoma multiforma, were treated with taurolidine. The prognosis for this group of patients was determined to be approximately 8 weeks of survival.

[13] = system: TNF; interleukins 1, 6, and 10; VEGF; TGF; test: Factors controlling angiogenesis in treated patients; format: in vivo, human; details: metastatic colon cancer patients, compared to placebo
Description: Patients with metastatic colon cancer were treated with taurolidine and several factors controlling angiogenesis were measured.

ovarian tumor cells = test: DNA fragmentation, agarose-gel electrophoresis; format: cell-based, human; details: 50 μM
[14] = system: MDR-transfected glioblastoma cells; test: Cytotoxicity in drug resistant glioblastoma cells; details: 50 μM
Description: The neoplastic cell lines used in the survey were standard tumor cell lines, e.g., PA1 human ovarian cell line, SKOV3 human ovarian cell line, HT29 human colon tumor cell line, DU145 human prostate tumor cell line, U251 human glioblastoma cell line, U251-MDR human glioblastoma cell line transfected with DNA encoding MDR, T98G human glioblastoma cell line, SP-1 human leukemia cell line, and Daudi human leukemia cell line.
Glioblastoma cells were transfected with a gene encoding multiple drug resistance (MDR).

O=S1(=O)CCN(CN2CCS(=O)(=O)NC2)CN1 [Taurolidine, Bis-(1,1-dioxoperhydro-1,2,4-thiadiazinyl-4)methane]
IC50 (A-549 lung tumor cells): 26.8 ± 7.2 µM
IC50 (H-157 lung tumor cells): 32.2 ± 5.6 µM
IC50 (HT-29 colon tumor cells): 18.6 ± 1 µM
IC50 (MNT-1 melanoma cells): 22.1 ± 2.1 µM
IC50 [1]: 11.9 ± 1.8 µM
IC50 ([1]; Mus musculus, NIH3T3, 72 h): ~10 µM
IC50 ([2]; Homo sapiens, 72 h): ~10 µM
IC50 [2]: 11.4 ± 1.8 µM
IC50 [3]: 31.6 ± 7 µM
IC50 (U-251 glioma cells): 20.1 ± 2.7 µM
IC50 [4]: 9.8 ± 0.8 µM
IC50 ([4]; Homo sapiens, DU-145, 72 h): ~10 µM
increase in Annexin-V binding [5]: 4 fold
increase in Annexin-V binding [6]: 3 fold
increase in Annexin-V binding (NIH-3T3 cells [7]): ~5%
PARP cleavage (NIH-3T3 cells [8]): little evidence of this proteolytic event
reduction in tumor foci [9]: 75-80%
cytotoxicity [10]: not cytotoxic in the high μM range
concentrations required to inhibit cell proliferation ([11]; normal murine bone marrow): mM range
cytotoxicity ([11]; normal murine bone marrow cultures): not cytotoxic in the high μM range
patients in whom the tumor mass decreased or stayed the same ([12]; 20 g i.v. over 6 hours twice a week, at least one 5 week regimen): 3 out of the 4
tolerability in patients ([12]; i.p. lavage (recurrent ovarian tumors) or systemic (glioblastoma)): well tolerated
survival after initiation of therapy, each patient alive ([12]; prognosis approximately 8 weeks): ≥ 14 weeks
factors controlling the growth of blood vessels [13]: decreased
DNA fragmentation (ovarian tumor cells): overt DNA fragmentation
cytotoxicity [14]: Significant cytotoxicity
